Assay results from patent US8518953B2, “Aminopyrimidines useful as inhibitors of protein kinases” (Vertex Pharmaceuticals Incorporated, priority 2007, dated 2013).

Tests used:
[1] = system: human umbilical vein endothelial cells (HUVEC); assay: In Vitro Model of Angiogenesis Using HUVEC and Skin Fibroblasts; assay type: cell-based; conditions: HUVEC cultures
From the text: Compounds are screened for the ability to enhance angiogenesis in human umbilical vein endothelial cells (HUVEC). This method, adapted from Nakatsu et al. Microvas. Res. 2003, describes a protocol that recapitulates the major events essential for new vessel growth: budding, cell migration, cell proliferation, lumen formation, branching, and anastomosis. HUVEC are used between P3 and P4. HUVEC are mixed with dextran coated cytodex 3 micro-carriers (Amersham Pharmacia) at a concentration of 400 HUVEC per bead in 1 ml of EGM-2 (2% FBS) medium (Clonetics). Beads with cells are then shaken gently every 20 min for 4 hr at 37° C. and 5% CO2. After incubating, beads with cells are transferred to a T-25 tissue culture flask and left for 12-16 hr in 5 ml of EGM-2 at 37° C. 5% CO2. The following day beads with cells are washed three times with EGM-2 and re-suspended at a concentration of 200 cell-coated beads/ml in 2.5 mg/ml of fibrinogen (Sigma) with 0.15 U/ml of aprotinin (Sigma) at a pH of 7.4. 500 ul of fibrinogen/bead solution is then added to 0.625 U of thrombin (Sigma) in one well of a 24 well tissue culture plate. Fibrinogen/Bead solution is allowed to clot for 5 min at room temperature and then at 37° C. 5% CO2 for 20 min. 1 ml of EGM-2 with 0.15 U/ml of aprotinin is then added to each well and equilibrated with the fibrin clot for 30 min at 37° C. and 5% CO2. Next, media is removed from the well and replaced with 1 ml of fresh medium. 20,000 skin fibroblasts (SF ATCC Detroit 551) are plated on top of the clot and medium is changed every other day. […] Angiogenesis is scored by quantification of images captured on an inverted microscope at 10× and 20× magnification for vessel length, number of vessels and branches per bead using NIH Image J software. […] YFP positive HUVEC are then cultured as described above and quantification of vessel formation is determined by calculating the area under the threshold fluorescence using NIH Image J software. In both cases, enhanced angiogenesis is determined by comparing compound treated cultures with a DMSO control culture at the same time point.

rats subjected to MCAO = assay: Post Stroke Recovery MCAO Model: Forepaw Asymmetry (Cylinder Test); assay type: in vivo, rat; conditions: low dose, 14 days after stroke
From the text: Adult male Wistar rats are pre-trained on a battery of behavioral tests including: tray reach, […], forelimb asymmetry (cylinder bracing), forelimb inhibition (swim test) (see below for detailed description of tests). Following pre-stroke behavioral assessment the rats receive surgery during which a stroke is induced. The rats are pseudo-randomly divided into 5 equal groups (n=12) ensuring an equal number of right and left strokes within each treatment group. The first group receives sham surgery with vehicle as treatment. Administration of the test compound and vehicle (dose, route, timing) is determined by the sponsor. The core body temperature is maintained at 37° C. (+/-1°). Following surgery all animals are behaviorally assessed 1, 7, and 14 d post-stroke. At the conclusion of behavioral assessment all rats undergo an MRI to determine infarct volume. […] Rectal temperature is monitored and maintained at 37 C+/-1° C. for the duration of the surgery and until the rat is awake and mobile (approximately 3 hr). […] Forepaw asymmetry of the animals is measured by placing a rat into a clear acrylic cylinder 25 cm in diameter. […] The first paw that touches the cylinder wall during the rear is counted. […]

[2] = concentrations that have been shown to induce β-catenin

Cc1nc(-c2ccccc2Cl)nc(Nc2n[nH]c3ncc(F)cc23)c1C [Compound I-1, N-(2-(2-chlorophenyl)-5,6-dimethylpyrimidin-4-yl)-5-fluoro-1H-pyrazolo[3,4-b]pyridin-3-amine]
vessel and network formation ([1]; 10 nM, 7 days): increase vessel and network formation
cell proliferation [1, 2]: increased cell proliferation was observed
vessel formation [1, 2]: vessel formation was inhibited
deficit in forepaw asymmetry (cylinder test) (rats subjected to MCAO): significantly ameliorated this deficit
